# Experimental data as given in US11679114B2, “Progestogen-only oral contraception” (Navad Life Sciences Pte, priority 2021, dated 2023).
# Assays:
# Type in all cases: in vivo, human
# healthy, cyclic women [1] = assay: Return of ovulation after the last treatment day; settings: for Ovulation observed, average days after last treatment: post-treatment period
# Protocol: After the last treatment day, assessments were continued every three (±1) days until ovulation was observed, followed by P measurements 2 (±1) and, if necessary, 4 (±1) days after ovulation. An end-of-study examination was performed 6 (±1) days after ovulation, or on day 30 (±1) in case no ovulation had been observed until then.
# healthy, cyclic women [2] = assay: Serum SHBG concentrations
# Protocol: Serum SHBG concentrations were determined after ovulation in the pre-treatment cycle, on treatment day 55 (±1) and at the end-of-study examination. Multiple-dose PK parameters were investigated in approximately 15 subjects per dose group, 5 of them having a BMI≥30 kg/m^2. Blood samples for LNG determination were taken on treatment day 55 (±1) pre-dose and 0.5, 1, 2, 3, 4, 6 and 24 hours after dosing.
# (§1) If ovulation was observed during treatment, the subsequent luteal phase was evaluated using the Landgren criterion, i.e. the luteal phase was considered adequate when P concentrations were >16 nmol/L during at least 5 days (Landgren et al., “Hormonal effects of the 300 μg norethisterone (NET) minipill. 1. Daily steroid levels in 43 subjects during a pretreatment cycle and during the second month of NET administration,” Contraception 1980; 21: pp. 87-113). TVUS measurements of the diameter of the largest FLS (mean of two directions) were performed using a Voluson E8 Expert device (GE Medical Systems). Serum FSH, LH, E2, P and SHBG concentrations were determined by validated chemiluminescent microparticle immunoassays (Abbott, Longford, Ireland). All pharmacodynamic parameters were evaluated descriptively.
# healthy, cyclic women [3] = assay: Ovarian activity according the Hoogland-Skouby score during two 28-day treatment periods
# Protocol: (§2) The tablets prepared in Example 1 were tested in a single-center, open-label, adaptive design study to evaluate the influence on hormonal and ovarian function and vaginal bleeding pattern of different higher dosages of LNG administered once daily for 28 days over two consecutive treatment cycles in healthy, cyclic women.
# The first tested dosage was 0.095 mg per day. The choice of subsequent dosages depended on the occurrence of ovulations in the previous treatment groups. The study was stopped when the lowest dosage completely inhibiting ovulation was identified, and one higher and one lower dosage were investigated.
# (§3) Subjects started study medication intake on the first day of menstrual bleeding after the pre-treatment cycle. One tablet was taken orally, around the same time every morning, during 56 consecutive days. Study visits were planned every three (±1) days from treatment day 3 (±1) until 27 (±1) and from day 31 (±1) until day 55 (±1). At each visit the diameter of the largest follicle-like structure (FLS) and serum follicle-stimulating hormone (FSH), luteinizing hormone (LH), estradiol (E2) and P concentrations were measured.
# The primary outcome parameter was ovarian activity according the Hoogland-Skouby score (Table 1), determined for each 28-day treatment period (Hoogland H J, Skouby S O. “Ultrasound evaluation of ovarian activity under oral contraceptives,” Contraception 1993; 47: pp. 583-90).
# as §1
# healthy, cyclic women [4] = assay: Diameter of the largest follicle-like structure (FLS) by transvaginal ultrasonography
# Protocol: as §2, §3, §1
# [5] = LNG 0.095 mg per day, end of study (on average 22 days after last treatment)
# [6] = LNG 0.095 mg per day, treatment day 55 ± 1
# [7] = LNG 0.115 mg per day, end of study (on average 22 days after last treatment)
# [8] = LNG 0.115 mg per day, treatment day 55 ± 1
# [9] = LNG 0.135 mg per day, end of study (on average 22 days after last treatment)
# [10] = LNG 0.135 mg per day, treatment day 55 ± 1
# [11] = LNG 0.095 mg per day, treatment period 1
# [12] = LNG 0.095 mg per day, treatment period 2
# [13] = LNG 0.115 mg per day, treatment period 1
# [14] = LNG 0.115 mg per day, treatment period 2
# [15] = LNG 0.135 mg per day, treatment period 1
# [16] = LNG 0.135 mg per day, treatment period 2
# [17] = LNG 0.095 mg per day, entire treatment period
# [18] = LNG 0.115 mg per day, entire treatment period
# [19] = LNG 0.135 mg per day, entire treatment period
smiles,measurement,setting,value
"C#C[C@]1(O)CC[C@H]2[C@@H]3CCC4=CC(=O)CC[C@@H]4[C@H]3CC[C@@]21CC (racemic) [LNG, levonorgestrel]","Ovulation observed, average days after last treatment","healthy, cyclic women [1]; LNG 0.095 mg per day for 56 days",15.5 days
same,"Ovulation observed, average days after last treatment","healthy, cyclic women [1]; LNG 0.115 mg per day for 56 days",14.1 days
same,"Ovulation observed, average days after last treatment","healthy, cyclic women [1]; LNG 0.135 mg per day for 56 days",12.8 days
same,P concentrations after post-treatment ovulation,"healthy, cyclic women [1]; majority of subjects, within the 30-day post-treatment period",≥ 16 nmol/L
same,"SHBG, Mean ± SD","healthy, cyclic women [2]; [5]",49.9 ± 17.4 nmol/L
same,"SHBG, Median","healthy, cyclic women [2]; [5]",47.7 nmol/L
same,"SHBG, Mean ± SD","healthy, cyclic women [2]; [6]",27.7 ± 10.6 nmol/L
same,"SHBG, Median","healthy, cyclic women [2]; [6]",25.5 nmol/L
same,"SHBG, Mean ± SD","healthy, cyclic women [2]; [7]",48.1 ± 20.1 nmol/L
same,"SHBG, Median","healthy, cyclic women [2]; [7]",46.7 nmol/L
same,"SHBG, Mean ± SD","healthy, cyclic women [2]; [8]",23.9 ± 12.1 nmol/L
same,"SHBG, Median","healthy, cyclic women [2]; [8]",18.9 nmol/L
same,"SHBG, Mean ± SD","healthy, cyclic women [2]; [9]",58.6 ± 28.5 nmol/L
same,"SHBG, Median","healthy, cyclic women [2]; [9]",47.8 nmol/L
same,"SHBG, Mean ± SD","healthy, cyclic women [2]; [10]",24.0 ± 9.5 nmol/L
same,"SHBG, Median","healthy, cyclic women [2]; [10]",23.7 nmol/L
same,Suppression of SHBG concentrations,"healthy, cyclic women [2]; all treatment groups, end of treatment period 2",approximately 60%
same,"Subjects with Hoogland-Skouby score 1 (No activity), %","healthy, cyclic women [3]; [11]",3.7%
same,"Subjects with Hoogland-Skouby score 2 (Potential activity), %","healthy, cyclic women [3]; [11]",29.6%
same,"Subjects with Hoogland-Skouby score 3 (Non-active FLS), %","healthy, cyclic women [3]; [11]",3.7%
same,"Subjects with Hoogland-Skouby score 4 (Active FLS), %","healthy, cyclic women [3]; [11]",55.6%
same,"Subjects with Hoogland-Skouby score 5 (LUF), %","healthy, cyclic women [3]; [11]",0%
same,"Subjects with Hoogland-Skouby score 6 ('Ovulation'), %","healthy, cyclic women [3]; [11]",7.4%
same,"Subjects with Hoogland-Skouby score 1 (No activity), %","healthy, cyclic women [3]; [12]",0%
same,"Subjects with Hoogland-Skouby score 2 (Potential activity), %","healthy, cyclic women [3]; [12]",24.0%
same,"Subjects with Hoogland-Skouby score 3 (Non-active FLS), %","healthy, cyclic women [3]; [12]",0%
same,"Subjects with Hoogland-Skouby score 4 (Active FLS), %","healthy, cyclic women [3]; [12]",76.0%
same,"Subjects with Hoogland-Skouby score 5 (LUF), %","healthy, cyclic women [3]; [12]",0%
same,"Subjects with Hoogland-Skouby score 6 ('Ovulation'), %","healthy, cyclic women [3]; [12]",0%
same,"Subjects with Hoogland-Skouby score 1 (No activity), %","healthy, cyclic women [3]; [13]",3.7%
same,"Subjects with Hoogland-Skouby score 2 (Potential activity), %","healthy, cyclic women [3]; [13]",22.2%
same,"Subjects with Hoogland-Skouby score 3 (Non-active FLS), %","healthy, cyclic women [3]; [13]",3.7%
same,"Subjects with Hoogland-Skouby score 4 (Active FLS), %","healthy, cyclic women [3]; [13]",70.4%
same,"Subjects with Hoogland-Skouby score 5 (LUF), %","healthy, cyclic women [3]; [13]",0%
same,"Subjects with Hoogland-Skouby score 6 ('Ovulation'), %","healthy, cyclic women [3]; [13]",0%
same,"Subjects with Hoogland-Skouby score 1 (No activity), %","healthy, cyclic women [3]; [14]",3.85%
same,"Subjects with Hoogland-Skouby score 2 (Potential activity), %","healthy, cyclic women [3]; [14]",23.1%
same,"Subjects with Hoogland-Skouby score 3 (Non-active FLS), %","healthy, cyclic women [3]; [14]",7.7%
same,"Subjects with Hoogland-Skouby score 4 (Active FLS), %","healthy, cyclic women [3]; [14]",65.4%
same,"Subjects with Hoogland-Skouby score 5 (LUF), %","healthy, cyclic women [3]; [14]",0%
same,"Subjects with Hoogland-Skouby score 6 ('Ovulation'), %","healthy, cyclic women [3]; [14]",0%
same,"Subjects with Hoogland-Skouby score 1 (No activity), %","healthy, cyclic women [3]; [15]",4.0%
same,"Subjects with Hoogland-Skouby score 2 (Potential activity), %","healthy, cyclic women [3]; [15]",32.0%
same,"Subjects with Hoogland-Skouby score 3 (Non-active FLS), %","healthy, cyclic women [3]; [15]",0%
same,"Subjects with Hoogland-Skouby score 4 (Active FLS), %","healthy, cyclic women [3]; [15]",64.0%
same,"Subjects with Hoogland-Skouby score 5 (LUF), %","healthy, cyclic women [3]; [15]",0%
same,"Subjects with Hoogland-Skouby score 6 ('Ovulation'), %","healthy, cyclic women [3]; [15]",0%
same,"Subjects with Hoogland-Skouby score 1 (No activity), %","healthy, cyclic women [3]; [16]",4.0%
same,"Subjects with Hoogland-Skouby score 2 (Potential activity), %","healthy, cyclic women [3]; [16]",24.0%
same,"Subjects with Hoogland-Skouby score 3 (Non-active FLS), %","healthy, cyclic women [3]; [16]",4.0%
same,"Subjects with Hoogland-Skouby score 4 (Active FLS), %","healthy, cyclic women [3]; [16]",68.0%
same,"Subjects with Hoogland-Skouby score 5 (LUF), %","healthy, cyclic women [3]; [16]",0%
same,"Subjects with Hoogland-Skouby score 6 ('Ovulation'), %","healthy, cyclic women [3]; [16]",0%
same,Lowest dosage at which no ovulation occurred (lowest effective dosage),"healthy, cyclic women [3]; once daily oral, two 28-day treatment periods, 0.095, 0.115 and 0.135 mg tested",0.115 mg per day
same,"Maximum FLS diameter, Mean ± SD","healthy, cyclic women [4]; LNG 0.095 mg per day, BMI < 30 kg/m^2, entire treatment period",22.5 ± 8.2 mm
same,"Maximum FLS diameter, Mean ± SD","healthy, cyclic women [4]; LNG 0.095 mg per day, BMI ≥ 30 kg/m^2, entire treatment period",20.6 ± 6.9 mm
same,"Maximum FLS diameter, Mean ± SD","healthy, cyclic women [4]; [17]",22.1 ± 7.9 mm
same,"Maximum FLS diameter, Median","healthy, cyclic women [4]; [17]",22.5 mm
same,"Maximum FLS diameter, Mean ± SD","healthy, cyclic women [4]; [11]",20.0 ± 8.6 mm
same,"Maximum FLS diameter, Median","healthy, cyclic women [4]; [11]",20.6 mm
same,"Maximum FLS diameter, Mean ± SD","healthy, cyclic women [4]; [12]",20.5 ± 7.5 mm
same,"Maximum FLS diameter, Median","healthy, cyclic women [4]; [12]",20.2 mm
same,"Maximum FLS diameter, Mean ± SD","healthy, cyclic women [4]; LNG 0.115 mg per day, BMI < 30 kg/m^2, entire treatment period",19.8 ± 7.5 mm
same,"Maximum FLS diameter, Mean ± SD","healthy, cyclic women [4]; LNG 0.115 mg per day, BMI ≥ 30 kg/m^2, entire treatment period",27.9 ± 4.4 mm
same,"Maximum FLS diameter, Mean ± SD","healthy, cyclic women [4]; [18]",21.4 ± 7.7 mm
same,"Maximum FLS diameter, Median","healthy, cyclic women [4]; [18]",20.8 mm
same,"Maximum FLS diameter, Mean ± SD","healthy, cyclic women [4]; [13]",20.4 ± 7.9 mm
same,"Maximum FLS diameter, Median","healthy, cyclic women [4]; [13]",20.3 mm
same,"Maximum FLS diameter, Mean ± SD","healthy, cyclic women [4]; [14]",19.9 ± 7.5 mm
same,"Maximum FLS diameter, Median","healthy, cyclic women [4]; [14]",20.8 mm
same,"Maximum FLS diameter, Mean ± SD","healthy, cyclic women [4]; LNG 0.135 mg per day, BMI < 30 kg/m^2, entire treatment period",18.4 ± 5.0 mm
same,"Maximum FLS diameter, Mean ± SD","healthy, cyclic women [4]; LNG 0.135 mg per day, BMI ≥ 30 kg/m^2, entire treatment period",19.0 ± 7.1 mm
same,"Maximum FLS diameter, Mean ± SD","healthy, cyclic women [4]; [19]",18.5 ± 5.3 mm
same,"Maximum FLS diameter, Median","healthy, cyclic women [4]; [19]",18.1 mm
same,FLS diameter in one subject with possible abnormal ovulation,"healthy, cyclic women [4]; LNG 0.135 mg per day, one subject (BMI 20.4 kg/m^2), treatment day 3",12.3 mm
same,"Maximum FLS diameter, Mean ± SD","healthy, cyclic women [4]; [15]",16.6 ± 5.7 mm
same,"Maximum FLS diameter, Median","healthy, cyclic women [4]; [15]",13.9 mm
same,"Maximum FLS diameter, Mean ± SD","healthy, cyclic women [4]; [16]",17.4 ± 5.0 mm
same,"Maximum FLS diameter, Median","healthy, cyclic women [4]; [16]",16.8 mm
